Measured values: ChEMBL document CHEMBL1201862, “PubChem BioAssay data set” (2004)
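1) Cells in 96-well plates. 2) Compound, 48 h, 5 concentrations. 3) Linear interpolation between surrounding doses. 4) Unreached endpoint = highest concentration. At the GI50, growth is halved.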 The source made the active and inactive calls. No stated cut-off is given here; in the data, active = GI50 up to about 1.1 µM and inactive = higher.

Assays:
Assay in all cases: growth of human tumour cells (NCI), 48 h
[1] = test system: TK-10
[2] = test system: HOP-92
[3] = test system: DLD-1
[4] = test system: DMS-273
[5] = test system: SNB-78
[6] = test system: MOLT-4
[7] = test system: KM-20L2
[8] = test system: M14
[9] = test system: RXF 393
[10] = test system: ACHN
[11] = test system: DMS-114
[12] = test system: SR
[13] = test system: MCF7
[14] = test system: T47D
[15] = test system: MDA-N
[16] = test system: PC-3
[17] = test system: Hs-578T
[18] = test system: DU-145
[19] = test system: MDA-MB-231
[20] = test system: NCI-H522

Nc1nc(Cl)cc(NCCCCO)n1
GI50 [1]: > 100 µM (inactive)
GI50 [2]: > 100 µM (inactive)
GI50 [3]: > 100 µM (inactive)
GI50 [4]: > 100 µM (inactive)
GI50 [5]: 15.9 µM (inactive)
GI50 [6]: > 100 µM (inactive)
GI50 [7]: > 100 µM (inactive)
GI50 [8]: > 10 µM (inactive)
GI50 [9]: > 100 µM (inactive)
GI50 [10]: > 100 µM (inactive)
GI50 [11]: > 100 µM (inactive)
GI50 [12]: > 100 µM (inactive)

O=[N+]([O-])/C(C(Cl)=C(Cl)Cl)=C1\Nc2ccccc2O1
GI50 [1]: > 100 µM (inactive)
GI50 [13]: 40.2 µM (inactive)
GI50 [2]: 12 µM (inactive)
GI50 [6]: 29.6 µM (inactive)
GI50 [14]: > 100 µM (inactive)
GI50 [15]: 45.4 µM (inactive)
GI50 [16]: 70.5 µM (inactive)
GI50 [8]: > 100 µM (inactive)
GI50 [17]: 32.3 µM (inactive)
GI50 [18]: > 100 µM (inactive)
GI50 [19]: 44.3 µM (inactive)
GI50 [9]: > 100 µM (inactive)
GI50 [20]: 27.2 µM (inactive)
GI50 [10]: 35.8 µM (inactive)
GI50 [12]: 24.9 µM (inactive)

Nc1nc(SCCc2ccccc2)nc2nc3c(c(-c4ccccc4)c12)CCCC3
GI50 [1]: > 100 µM (inactive)
GI50 [13]: > 100 µM (inactive)
GI50 [6]: > 100 µM (inactive)
GI50 [14]: > 100 µM (inactive)
GI50 [15]: > 100 µM (inactive)
GI50 [16]: > 100 µM (inactive)
GI50 [8]: > 100 µM (inactive)
GI50 [17]: 8.65 µM (inactive)
GI50 [18]: > 100 µM (inactive)
GI50 [19]: > 100 µM (inactive)
GI50 [9]: 24.3 µM (inactive)
GI50 [10]: > 100 µM (inactive)

COn1oc(=O)c2ccccc21
GI50 [1]: > 100 µM (inactive)
GI50 [13]: > 100 µM (inactive)
GI50 [2]: > 100 µM (inactive)
GI50 [6]: > 100 µM (inactive)
GI50 [15]: > 100 µM (inactive)
GI50 [16]: > 100 µM (inactive)
GI50 [8]: > 100 µM (inactive)
GI50 [17]: > 100 µM (inactive)
GI50 [18]: > 100 µM (inactive)
GI50 [19]: > 100 µM (inactive)
GI50 [9]: > 100 µM (inactive)
GI50 [20]: 11.5 µM (inactive)
GI50 [10]: > 100 µM (inactive)

CCOC(=O)CC1(c2cccc3ccccc23)OC(=O)c2ccccc21 (stereo not drawn)
GI50 [1]: 80 µM (inactive)
GI50 [3]: 8.69 µM (inactive)
GI50 [4]: 41.7 µM (inactive)
GI50 [5]: 66.4 µM (inactive)
GI50 [6]: 25.4 µM (inactive)
GI50 [7]: 45 µM (inactive)
GI50 [9]: 16.3 µM (inactive)
GI50 [20]: 24.1 µM (inactive)
GI50 [10]: 30.3 µM (inactive)
GI50 [11]: 30.6 µM (inactive)

CC(C)(C)c1ccc2c(c1)OP1(Oc3cccc4cccnc34)(O2)Oc2ccc(C(C)(C)C)cc2O1
GI50 [13]: 0.655 µM (active)
GI50 [2]: 4.61 µM (inactive)
GI50 [3]: 3.92 µM (inactive)
GI50 [4]: 3.75 µM (inactive)
GI50 [5]: 34.4 µM (inactive)
GI50 [6]: 0.57 µM (active)
GI50 [7]: 4.05 µM (inactive)
GI50 [9]: 3.37 µM (inactive)
GI50 [20]: 4.9 µM (inactive)
GI50 [11]: 0.71 µM (active)

O=C(NC(Cc1ccc(I)cc1)C(=O)O)c1cccc(Br)c1 (stereo not drawn)
GI50 [13]: 38 µM (inactive)
GI50 [2]: 44.9 µM (inactive)
GI50 [3]: > 100 µM (inactive)
GI50 [4]: > 100 µM (inactive)
GI50 [5]: > 100 µM (inactive)
GI50 [6]: 33.7 µM (inactive)
GI50 [7]: > 100 µM (inactive)
GI50 [20]: > 61.1 µM (inactive)
GI50 [11]: 48 µM (inactive)

CON(C)c1nc(N)c(C#N)c(C#N)c1C#N
GI50 [1]: > 10 µM (inactive)
GI50 [13]: > 10 µM (inactive)
GI50 [6]: > 10 µM (inactive)
GI50 [14]: > 10 µM (inactive)
GI50 [15]: > 10 µM (inactive)
GI50 [16]: > 10 µM (inactive)
GI50 [8]: > 10 µM (inactive)
GI50 [17]: > 10 µM (inactive)
GI50 [18]: > 10 µM (inactive)
GI50 [19]: > 10 µM (inactive)
GI50 [9]: > 10 µM (inactive)
GI50 [20]: > 10 µM (inactive)
GI50 [10]: > 10 µM (inactive)
GI50 [12]: > 10 µM (inactive)

CSc1nc(NC2OCC(O)C(O)C2O)c(N)c(=O)n1C (stereo not drawn)
GI50 [13]: > 100 µM (inactive)
GI50 [2]: > 100 µM (inactive)
GI50 [3]: > 100 µM (inactive)
GI50 [4]: > 100 µM (inactive)
GI50 [5]: > 100 µM (inactive)
GI50 [6]: > 100 µM (inactive)
GI50 [7]: > 100 µM (inactive)
GI50 [9]: > 100 µM (inactive)
GI50 [20]: > 100 µM (inactive)

CCC1NC(/N=N/c2ccc([N+](=O)[O-])cc2)(P(=O)(OC(C)C)OC(C)C)OC1=O (stereo not drawn)
GI50 [1]: > 100 µM (inactive)
GI50 [2]: > 100 µM (inactive)
GI50 [3]: > 100 µM (inactive)
GI50 [4]: > 100 µM (inactive)
GI50 [5]: > 100 µM (inactive)
GI50 [6]: > 100 µM (inactive)
GI50 [7]: > 100 µM (inactive)
GI50 [8]: > 100 µM (inactive)
GI50 [20]: > 100 µM (inactive)
GI50 [10]: > 100 µM (inactive)
GI50 [12]: > 100 µM (inactive)

C/C(=C\c1ccccc1)n1c(=O)cc(C)n1C
GI50 [1]: > 100 µM (inactive)
GI50 [13]: > 100 µM (inactive)
GI50 [2]: > 100 µM (inactive)
GI50 [6]: 25.7 µM (inactive)
GI50 [14]: > 100 µM (inactive)
GI50 [15]: > 100 µM (inactive)
GI50 [16]: > 100 µM (inactive)
GI50 [8]: > 100 µM (inactive)
GI50 [17]: > 100 µM (inactive)
GI50 [18]: > 100 µM (inactive)
GI50 [9]: > 100 µM (inactive)
GI50 [10]: > 100 µM (inactive)

O=P(Nc1ccc(Cl)cc1)(Oc1ccccc1)N(CCCl)CCCl (stereo not drawn)
GI50 [1]: > 100 µM (inactive)
GI50 [2]: > 100 µM (inactive)
GI50 [3]: > 100 µM (inactive)
GI50 [4]: > 100 µM (inactive)
GI50 [5]: > 100 µM (inactive)
GI50 [6]: > 100 µM (inactive)
GI50 [7]: > 100 µM (inactive)
GI50 [8]: > 100 µM (inactive)
GI50 [20]: > 100 µM (inactive)
GI50 [10]: > 100 µM (inactive)
GI50 [11]: > 100 µM (inactive)
GI50 [12]: > 100 µM (inactive)

O=S(O)CCCCCSSc1ccccc1
GI50 [1]: 84.9 µM (inactive)
GI50 [3]: 54.8 µM (inactive)
GI50 [5]: 41 µM (inactive)
GI50 [6]: 8.13 µM (inactive)
GI50 [8]: 43.8 µM (inactive)
GI50 [9]: 18.3 µM (inactive)
GI50 [20]: 15.3 µM (inactive)
GI50 [10]: 85.7 µM (inactive)
GI50 [11]: 23.6 µM (inactive)
GI50 [12]: 8.02 µM (inactive)

O=C1C[C@H](c2ccccc2)C2(C(=O)c3ccccc3C2=O)[C@H](c2ccccc2)C1
GI50 [2]: 32.2 µM (inactive)
GI50 [6]: 61.2 µM (inactive)
GI50 [14]: > 100 µM (inactive)
GI50 [15]: 85.7 µM (inactive)
GI50 [16]: > 100 µM (inactive)
GI50 [8]: > 100 µM (inactive)
GI50 [17]: 29.8 µM (inactive)
GI50 [18]: 75 µM (inactive)
GI50 [19]: 9.42 µM (inactive)
GI50 [9]: 12.1 µM (inactive)
GI50 [20]: 91 µM (inactive)
GI50 [12]: > 100 µM (inactive)

Oc1cc(-c2ccc(Cl)cc2)nc2ncccc12
GI50 [1]: 94.4 µM (inactive)
GI50 [13]: 16.6 µM (inactive)
GI50 [2]: 41.2 µM (inactive)
GI50 [6]: 40.2 µM (inactive)
GI50 [14]: 61.7 µM (inactive)
GI50 [8]: 40.5 µM (inactive)
GI50 [17]: 56.2 µM (inactive)
GI50 [18]: > 100 µM (inactive)
GI50 [19]: 64.6 µM (inactive)
GI50 [20]: 40.3 µM (inactive)
GI50 [10]: 79.4 µM (inactive)
GI50 [12]: 5.56 µM (inactive)
